According to publication PMC6839570:

Experiment: Thioether (C-S) macrocyclisation: SN2' of the free C-terminal Cys-NH2 thiol on an N-terminal O-acetyl Morita-Baylis-Hillman (2-methylene-3-acetoxyacyl) residue, Et3N 3% v/v, 48 h; crude cleaved linear peptides
Settings: the molecule shown is the open-chain precursor, 16-membered ring, dry THF/CH2Cl2 1:1, 1.0 mM, 25.0 °C, 11 steps

For `C=C(C(=O)N[C@@H](Cc1ccccc1)C(=O)N[C@H](CC(C)C)C(=O)N[C@@H](C)C(=O)N[C@@H](CS)C(N)=O)C(C)OC(C)=O` (stereo partly drawn) [CH3CH(OAc)C(=CH2)CO-Phe-D-Leu-Ala-Cys-NH2], which ring closure, overall yield is on record?
Its ring closure, overall yield is 14.4%.

For `C=C(C(=O)N[C@@H](C)C(=O)N[C@@H](CC(C)C)C(=O)N[C@@H](Cc1ccccc1)C(=O)N[C@@H](CS)C(N)=O)C(C)OC(C)=O` (stereo partly drawn) [CH3CH(OAc)C(=CH2)CO-Ala-Leu-Phe-Cys-NH2], which ring closure, overall yield is on record?
The ring closure, overall yield was 14.8%.

Which ring closure, overall yield does the source give for `C=C(C(=O)N[C@@H](Cc1ccccc1)C(=O)N[C@H](CC(C)C)C(=O)N[C@H](C)C(=O)N[C@@H](CS)C(N)=O)C(C)OC(C)=O` (stereo partly drawn) [CH3CH(OAc)C(=CH2)CO-Phe-D-Leu-D-Ala-Cys-NH2] here?
The ring closure, overall yield was 7.3%.

Which ring closure, overall yield does the source give for `C=C(C(=O)N[C@@H](Cc1ccccc1)C(=O)N[C@@H](CC(C)C)C(=O)N[C@H](C)C(=O)N[C@@H](CS)C(N)=O)C(C)OC(C)=O` (stereo partly drawn) [CH3CH(OAc)C(=CH2)CO-Phe-Leu-D-Ala-Cys-NH2] here?
Its ring closure, overall yield is 2.7%.

With `C=C(C(=O)N[C@@H](Cc1ccccc1)C(=O)N[C@H](CC(C)C)C(=O)N[C@H](C)C(=O)N[C@@H](CS)C(N)=O)C(CCCCCC)OC(C)=O` (stereo partly drawn) [n-C6H13CH(OAc)C(=CH2)CO-Phe-D-Leu-D-Ala-Cys-NH2] as the compound, how does the ring closure, overall yield read?
The ring closure, overall yield was 11.8%.

With `C=C(C(=O)N[C@@H](Cc1ccccc1)C(=O)N[C@@H](CC(C)C)C(=O)N[C@H](C)C(=O)N[C@@H](CS)C(N)=O)C(CCCCCC)OC(C)=O` (stereo partly drawn) [n-C6H13CH(OAc)C(=CH2)CO-Phe-Leu-D-Ala-Cys-NH2] as the compound, how does the ring closure, overall yield read?
The ring closure, overall yield was 4.7%.

Which ring closure, overall yield does the source give for `C=C(C(=O)N[C@@H](Cc1ccccc1)C(=O)N[C@@H](CC(C)C)C(=O)N[C@@H](C)C(=O)N[C@@H](CS)C(N)=O)C(C)OC(C)=O` (stereo partly drawn) [CH3CH(OAc)C(=CH2)CO-Phe-Leu-Ala-Cys-NH2] here?
The ring closure, overall yield was 10.2%.
